The text below walks through data of patent publication US11883387B2, “PqsR inverse agonists” (HELMHOLTZ-ZENTRUM FÜR INFEKTIONSFORSCHUNG GMBH, priority 2018, dated 2024).

Values after ≈ are worked out from the molar mass of the structure shown. Some results are limits rather than exact numbers.

Series [1] concerns production of signal molecules HHQ and PQS. As to conditions: inhibitor targeting the enzyme PqsA; read-out: IC50 for reduction of production of signal molecules HHQ and PQS; cited from earlier work.
A further series deals with PqsR (Pseudomonas aeruginosa, UniProt Q9I4X0). Nature of the series: E. coli based β-galactosidase reporter gene assay (PqsR inverse agonistic activity). The class given is cell-based. Details: expressed in transfected cells; host or cells: Escherichia coli DH5α. The procedure, abridged:
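E. coli DH5α carrying pEAL08-2 (tac-driven pqsR with pqsA-lacZ) was grown to OD600 0.2 and incubated with 0.001–10 μM compound plus 50 nM PQS for 2.5 h at 37 °C. β-Galactosidase activity was measured by ONPG conversion in permeabilized cells and normalized between the no-PQS and solvent controls. IC50 came from concentration variation.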

The test system of the next series is HEK293 cells. Nature of the series: Cytotoxicity (MTT) toward HEK293. The class given is cell-based. As to conditions: Homo sapiens, 48 h, upper class: or at solubility maximum, read-out: IC50-value towards HEK293. The protocol:
(§1) To obtain information regarding the toxicity of our compounds, their impact on the viability of human cells was investigated. HepG2 and HEK293 cells (2×10^5 per well) were seeded in 24-well, flat-bottomed culture plates. 24 h after seeding the cells the incubation was started by the addition of compounds in a final DMSO concentration of 1%. The living cell mass was determined 48 h after treatment with compounds by adding 0.1 volumes of 3-(4,5-dimethylthiazol-2-yl)-2,5-diphenyltetrazolium bromide (MTT) solution (5 mg per mL sterile PBS) (Sigma, St. Louis, MO) to the wells. After incubating the cells for 30 min at 37° C. (atmosphere containing 5% CO2), MTT crystals were dissolved in a solution containing 10% SDS and 0.5% acetic acid in DMSO. The optical density (OD) of the samples was determined photometrically at 570 nm in a FLUOstar Omega plate reader (BMG labtech, Ortenberg, Germany). To obtain inhibition values for each sample, their ODs were related to those of DMSO controls.

Series [2] deals with P. aeruginosa pyocyanin production. Nature of the series: Pyocyanin assay. The class given is cell-based, P. aeruginosa PA14. As to conditions: Pseudomonas aeruginosa, PA14, 16 h, read-out: IC50-value towards pyocyanin production, PA14 in PPGAS medium, 16 h. The procedure, abridged: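 PA14 in PPGAS medium from OD600 0.02 grown 16 h at 37 °C, 200 rpm, with compounds. Pyocyanin extracted with chloroform, back-extracted into 0.2 M HCl, OD520 normalised to OD600.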

A short description of series [3]: Kinetic Turbidimetric Aqueous Solubility at room temperature for 5 min. Format: physicochemical. As to conditions: PBS buffer, kinetic from dmso stock, 2% DMSO. In outline: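 Compound diluted in PBS across typically 0.4–200 μM (final DMSO 2%), held 5 min at room temperature. Turbidity read as absorbance at 620 nm against vehicle control. Four-parameter sigmoidal fit of normalized absorbances with AUC calculation gives Log S.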

Series [4] concerns P. aeruginosa PA14 biofilm. Nature of the series: Biofilm assay, crystal violet staining (biofilm mass). The class given is cell-based. As to conditions: Pseudomonas aeruginosa, PA14, PPGAS medium, read-out: IC50-value towards biofilm formation. How it is done:
Commonly used crystal violet (CV) assay procedures (PMID: 3905855, PMID: 10547784, PMID: 22488868) were adapted for determination of biofilm mass. For the cultivation of biofilm in 96 well plates, the protocol described by Frei et al. (PMID: 22488868) was slightly modified by replacement of medium and Pseudomonas strain used. The experiment was performed using P. aeruginosa PA14 strain and PPGAS medium. CV staining was used to detect compound effects on the overall biofilm biomass. Impact on eDNA was assessed by incubation of biofilm with propidium iodine solution (0.05 mg ml^−1) for 24 h and detection of specific florescence at 620 nm (excitation 544 nm) after a thorough washing step with 18 MΩ H2O. (PMID: 16430688)

The nature of series [5]: Metabolic stability against human hepatic S9 fraction. Format: in vitro ADME. The protocol:
For the evaluation of combined phase I and phase II metabolic stability, the compound (1 μM) was incubated with 1 mg/mL pooled human liver S9 fraction (BD Gentest), 2 mM NADPH regenerating system, 1 mM UDPGA, 10 mM MgCl2 and 0.1 mM PAPS at 37° C. for 0, 5, 15, 30 and 60 min. The metabolic stability of Testosterone (1 μM) and 7-hydroxycoumarin (1 μM) were determined in parallel to confirm the enzymatic activity of the S9 fraction. The incubation was stopped by precipitation of S9 enzymes with 2 volumes of cold acetonitrile containing internal standard (750 nM Diphenhydramine). Samples were stored on ice for 10 min and precipitated protein was removed by centrifugation (10 min, 4° C., 17,000 g). Concentration of the remaining test compound at the different time points was analyzed by LC-MS/MS (TSQ Quantum Access MAX, Thermo Fisher, Dreieich, Germany) and used to determine half-life (t/2).

A short description of series [6]: Turbidimetric Aqueous Solubility at 37° C. for 2 h. Format: physicochemical. As to conditions: aqueous buffer, kinetic from dmso stock, 1% DMSO in buffer, estimated precipitation range. How it is done:
Turbidimetric Aqueous Solubility at 37° C. for 2 h. Test compound was diluted in buffer to give a range of concentrations (typically 1, 3, 10, 30 and 100 μM, final DMSO concentration 1%) and incubated at 37° C. for 2 hr. Absorbance was measured at a wavelength of 620 nm and the solubility was estimated from the concentration of test compound that produces an increase in absorbance above the vehicle control (i.e., 1% DMSO in buffer). An estimated precipitation range (lower and upper bound) was provided as result.

Series [7] can be described thus: Metabolic stability in mouse liver microsomes (MLM). The class given is in vitro ADME. As to conditions: 1 μM compound, 0.5 mg/mL MLM, 1 mM NADPH, 37° C., read-out: half-life (t1/2) towards MLM. In outline:
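Phase I stability: 1 μM compound incubated at 37° C with 0.5 mg/mL mouse liver microsomes and 1 mM NADPH, sampled at 0-30 min and quenched in acetonitrile. Remaining parent measured by HPLC-MS/MS to derive half-life.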

A further series relates to HepG2 cells. Nature of the series: Cytotoxicity (MTT) toward HepG2. As to conditions: Homo sapiens, 48 h, upper class: or at solubility maximum, read-out: IC50-value towards HepG2. Format: cell-based. The protocol:
as §1

Setting [8] is: pooled human liver S9 fraction, 1 μM compound, 1 mg/mL pooled human liver S9, phase I and II cofactors, 37° C., read-out: half-life (t1/2) towards human hepatic S9 fraction.

Sequence of PqsR (Q9I4X0 whole entry): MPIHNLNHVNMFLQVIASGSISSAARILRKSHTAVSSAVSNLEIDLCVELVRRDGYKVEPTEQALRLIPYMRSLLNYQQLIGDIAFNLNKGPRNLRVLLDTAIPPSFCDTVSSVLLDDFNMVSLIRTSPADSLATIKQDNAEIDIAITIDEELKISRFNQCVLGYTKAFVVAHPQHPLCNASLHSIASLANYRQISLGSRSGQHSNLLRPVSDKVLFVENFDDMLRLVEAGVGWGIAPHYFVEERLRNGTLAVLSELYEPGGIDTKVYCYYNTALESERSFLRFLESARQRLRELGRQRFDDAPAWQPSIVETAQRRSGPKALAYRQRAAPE

`Nc1cccc(F)c1C(=O)O` [Compound 6FABA]: the IC50 in [1] is around 100 µM.

Turning to `FC(F)(F)Oc1ccc(-n2cc(CNc3ccnc(C(F)(F)F)c3)nn2)cc1` [Compound 012, N-((1-(4-(Trifluoromethoxy)phenyl)-1H-1,2,3-triazol-4-yl)methyl)-2-(trifluoromethyl)pyridin-4-amine], the IC50 at PqsR was at most 50 nM; with HEK293 cells it was 25 to 50 µM; in series [2], 1000 to 5000 nM.

`COc1ccc(-n2cc(CNc3ccnc(C(F)(F)F)c3)nn2)cc1Cl` [Compound 017, N-((1-(3-chloro-4-methoxyphenyl)-1H-1,2,3-triazol-4-yl)methyl)-2-(trifluoromethyl)pyridin-4-amine]: the solubility at 5 min in series [3] was above 50 µM. The half-inhibitory concentration (IC50) on PqsR is at most 50 nM; in [4] it was at most 500 nM; in series [2], 251 to 1000 nM. In series [5] (setting [8]), the half-life at 1 μM fell in the range of 41 to 60 min. Further, in [6], the solubility at 2 h is 10 to 30 µM (≈ 3.84 to 11.5 µg/mL).

For the compound `FC(F)(F)Oc1ccc(-n2cc(CNc3ccnc(C(F)(F)F)c3)nn2)cc1Cl` [Compound 022, N-((1-(3-Chloro-4-(trifluoromethoxy)phenyl)-1H-1,2,3-triazol-4-yl)methyl)-2-(trifluoromethyl) pyridin-4-amine], the solubility at 5 min in series [3] was above 25 µM. In series [7], the half-life at 1 μM is 31 to 60 min. The IC50 at PqsR was at most 50 nM; in the series with HepG2 cells, 25 to 50 µM; with HEK293 cells, 25 to 50 µM; in [2], 251 to 1000 nM.

Turning to `Fc1cc(-n2cc(CNc3ccnc(C(F)(F)F)c3)nn2)ccc1Oc1ccccc1` [Compound 028, N-((1-(3-fluoro-4-phenoxyphenyl)-1H-1,2,3-triazol-4-yl)methyl)-2-(trifluoromethyl)pyridin-4-amine], the IC50 at PqsR was at most 50 nM; in the series with HepG2 cells it was 25 to 50 µM; with HEK293 cells, 25 to 50 µM; in series [2], 251 to 1000 nM.

As for `FC(F)(F)c1cc(NCc2cnc(-c3ccc(Oc4ccccc4)cc3)s2)ccn1` [Compound 071, N-((2-(4-Phenoxyphenyl)thiazol-5-yl)methyl)-2-(trifluoromethyl)pyridin-4-amine], the IC50 on PqsR is at most 50 nM; in the series on HepG2 cells, 25 to 50 µM; with HEK293 cells it was 25 to 50 µM; in series [2], 251 to 1000 nM. Besides, the half-life at 1 μM in [5] (human, s9) was above 60 min.

Compound `FC(F)(F)c1cc(NCc2csc(-c3ccc(Oc4ccccc4)cc3)n2)ccn1` [Compound 080, N-((2-(4-Phenoxyphenyl)thiazol-4-yl)methyl)-2-(trifluoromethyl)pyridin-4-amine] showed a solubility at 5 min in [3] above 10 µM. Also, the IC50 is at most 50 nM on PqsR, 25 to 50 µM in the series on HepG2 cells, 25 to 50 µM with HEK293 cells and 1000 to 5000 nM in [2].

In turn, `FC(F)(F)c1cc(NCc2ccc(-c3ccc(Oc4ccccc4)cc3)cn2)ccn1` [Compound 097, N-((5-(4-phenoxyphenyl)pyridin-2-yl)methyl)-2-(trifluoromethyl)pyridin-4-amine] displayed a solubility at 5 min in [3] above 10 µM. Further, the IC50 was 51 to 250 nM at PqsR, 25 to 50 µM in the series with HepG2 cells, 25 to 50 µM with HEK293 cells and 251 to 1000 nM in series [2].

The compound `CC(C)Oc1ccc(-c2ncc(CNc3ccnc(C(F)(F)F)c3)cn2)cc1Cl` [Compound 108, N-((2-(3-Chloro-4-isopropoxyphenyl)pyrimidin-5-yl)methyl)-2-(trifluoromethyl)pyridin-4-amine] yielded a solubility at 5 min in [3] (aqueous buffer) above 25 µM. Besides, the 50% inhibitory concentration (IC50) on PqsR is at most 50 nM; in series [2] it was at most 250 nM. Moreover, the solubility at 2 h in [6] is 10 to 30 µM (≈ 4.23 to 12.7 µg/mL).

On to `Fc1cc2nc(CSc3ccnc(C(F)(F)F)c3)[nH]c2cc1F` [Compound 122, 5,6-Difluoro-2-(((2-(trifluoromethyl)pyridin-4-yl)thio)methyl)-1H-benzo[d]imidazole], for which the solubility at 5 min in series [3] is at least 100 µM. In addition, the IC50 is 251 to 1000 nM at PqsR, at least 50 µM in the series on HepG2 cells and at least 50 µM with HEK293 cells.

As for `FC(F)(F)c1cc(SCc2nc3cc(Oc4ccccc4)ccc3[nH]2)ccn1` [Compound 127, 5-Phenoxy-2-(((2-(trifluoromethyl)pyridin-4-yl)thio)methyl)-1H-benzo[d]imidazole], the solubility at 5 min in series [3] is above 10 µM. The IC50 on PqsR is at most 50 nM; in the series on HepG2 cells, 25 to 50 µM; in the series on HEK293 cells, 25 to 50 µM; in [2], at most 250 nM.

As for `Cc1cccc(Oc2ccc3[nH]c(CSc4cc(N)nc(C(F)(F)F)n4)nc3c2)c1` [Compound 128, 6-(((5-(m-Tolyloxy)-1H-benzo[d]imidazol-2-yl)methyl)thio)-2-(trifluoromethyl)pyrimidin-4-amine], the solubility at 5 min in series [3] was above 25 µM. For the same compound, the values for the half-maximal inhibitory concentration (IC50) at PqsR, in the series on HepG2 cells and in the series with HEK293 cells were at most 50 nM, 25 to 50 µM and 25 to 50 µM, respectively.

On to `Nc1cc(SCc2nc3cc(Oc4cccc(F)c4)ccc3[nH]2)nc(C(F)(F)F)n1` [Compound 129, 6-(((5-(3-Fluorophenoxy)-1H-benzo[d]imidazol-2-yl)methyl)thio)-2-(trifluoromethyl)pyrimidin-4-amine], for which the half-life at 1 μM in [7] is 31 to 60 min. In addition, the half-maximal inhibitory concentration (IC50) on PqsR was at most 50 nM; in the series with HepG2 cells, 25 to 50 µM; in the series with HEK293 cells, 25 to 50 µM.

`FC(F)(F)c1cc(SCc2nc3ccc(Oc4ccccc4)cc3o2)ccn1` [Compound 132, 6-Phenoxy-2-(((2-(trifluoromethyl)pyridin-4-yl)thio)methyl)benzo[d]oxazole]: the IC50 on PqsR fell in the range of 51 to 250 nM; in the series on HEK293 cells it was 25 to 50 µM; in series [2], 251 to 1000 nM. In addition, the half-life at 1 μM in [5] (setting [8]) was above 60 min. For the same compound, the solubility at 2 h in series [6] was 10 to 30 µM (≈ 4.02 to 12.1 µg/mL).
